What all share (experiment): inhibition of tumour cell growth, NCI panel, 48 h
Assay [1] concerns M19-MEL melanoma.
In assay [2] the test system is SNB-78 CNS.
In assay [3] the test system is DMS 114 small cell lung.
Assay [4] has as its system DLD-1 colon.
Assay [5] has as its system XF 498 CNS.
In assay [6] the test system is HOP-18 NSCLC.
In assay [7] the test system is LXFL 529 NSCLC.
The subject of assay [8] is DMS 273 small cell lung.
In assay [9] the test system is RXF-631 renal.

Here are results for 15 compounds from PubChem BioAssay (NCI).

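Compound exposure: 48 hours, 5 concentrations, 96-well plates. TGI marks complete inhibition of growth.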 Bounds are passed on as bounds.

For `Cc1ccc(C(c2c(O)c3ccccc3n(-c3ccccc3)c2=O)c2c(O)c3ccccc3n(-c3ccccc3)c2=O)cc1`, the TGI in assay [1], in assay [2], in assay [3], in assay [4], in assay [5] and in [6] was > 100 µM throughout. The TGI in assay [7] and in assay [8] was > 100 µM throughout.

With `NC(=O)/C(=N\NC(=O)C[n+]1ccccc1)C1NC(=O)NC1=O` (stereo not given), the TGI in assay [1], in assay [9], in assay [2], in assay [3], in assay [4] and in [5] was > 100 µM throughout. Further, the TGI in assay [6], in assay [7] and in assay [8] was > 100 µM in each case.

With `O=C1CC2(CCC3=C(O2)c2ccccc2NC(=O)C3)C(=O)c2ccccc2N1` (stereo not given), the TGI in assay [1], in assay [2], in assay [3], in assay [5], in [7] and in assay [8] was > 100 µM each time.

As for `O=c1c2ccccc2nc2n1-c1ccccc1SC2`, the TGI in assay [1] is > 100 µM; in assay [9] it was > 100 µM; in assay [2], > 100 µM; in assay [3], > 100 µM; in [4], > 100 µM; in assay [5] it was 91.3 µM. The TGI in assay [7] and in assay [8] was > 100 µM in each case.

With `N#Cc1cc([N+](=O)[O-])ccc1NC(=O)/C(=N\NC(=O)c1ccncc1)C(c1cnc2ccc([N+](=O)[O-])cc2n1)[N+](=O)[O-]` (stereo not given), the TGI in assay [1] was found to be 1.69 µM; in [9] it was 5.13 µM; in [2] it was 21.6 µM; in [3] it was 3.1 µM; in assay [5], 3.17 µM; in assay [6], 2.87 µM. The TGI in assay [7] was 3.81 µM; in assay [8], 6.59 µM.

For `O=C1C=CC2(C=C1)CCNC1=C2C(=O)c2ccccc2C1=O`, the TGI in assay [1], in assay [9], in assay [3], in assay [4], in [5] and in assay [7] was > 100 µM throughout. Moreover, the TGI in assay [8] was > 100 µM.

Turning to `O=C1C=CC(=O)c2c1ccc1c3ccccc3n(-c3ccccc3)c21`, the TGI in assay [1] was 36.1 µM; in assay [9], 82.2 µM; in [2], 53.8 µM; in assay [3] it was 40.4 µM; in [4], 6.99 µM; in [5], 20.1 µM. For the same compound, the TGI in assay [6] came to 20.7 µM; in assay [7], 10.9 µM; in assay [8], 32.1 µM.

In the case of `O=C1NC(=O)C(C(=O)C(=O)Nc2ccc(Cl)cc2Cl)C(=O)N1`, the TGI in assay [1], in [9], in assay [2], in [3], in assay [4] and in assay [7] was > 100 µM each time.

Regarding `OCCCNc1ccnc2cc(Cl)ccc12`, the TGI in assay [1], in assay [2], in assay [3], in assay [4], in assay [5] and in assay [6] was > 100 µM throughout. Further, in assay [7], the TGI was > 100 µM.

Regarding `O=C(c1nc2ccccc2[nH]c1=O)C(O)c1ccco1` (stereo not given), the TGI in assay [1], in [2], in [3], in assay [5], in [7] and in assay [8] was > 100 µM in each case.

`O=C(Nc1cccc(C(F)(F)F)c1)C(=O)C1NC(=S)NC1=O` (stereo not given): the TGI in assay [1], in [2], in assay [3], in assay [4], in assay [6] and in [7] was > 100 µM each time. Moreover, the TGI in assay [8] was > 100 µM.

In the case of `C=CCN1COc2c(cc3c4c(cccc24)C(=O)O3)C1`, the TGI in [1] is 37.4 µM; in assay [3] it was 35 µM; in assay [4] it was 66.2 µM; in [5], 37.8 µM; in assay [6], > 100 µM; in assay [7] it was 35.1 µM. The TGI in [8] is > 100 µM.

Turning to `CC(=O)C1Cn2c(=O)c3cc4ccccc4cc3c(=O)n2C=C1C` (stereo not given), the TGI in [1], in [9], in assay [2], in assay [3], in assay [4] and in [5] was > 100 µM each time. Further, the TGI in [7] and in assay [8] was > 100 µM each time.

Take `N#CC1=C(c2ccccc2)C(=C2Nc3ccccc3N2)C2S/C(=C\c3ccccc3)C(=O)N2C1=N` (stereo not given): the TGI in [1] turned out to be 7.97 µM; in assay [2] it was 6.86 µM; in [3] it was 4.64 µM; in assay [4], 12 µM; in [5] it was 5.57 µM; in [7], 10.8 µM. The compound further showed a TGI in assay [8] of 4.9 µM.

Turning to `C/C(CC(=O)Nc1cc(C)ccc1C)=N/N=C(N)N`, the TGI in assay [1], in assay [2], in [3], in assay [4], in assay [5] and in [7] was > 100 µM in each case. For the same compound, in assay [8], the TGI is > 100 µM.
